The values below come from patent US10519504B2, “Methods for treatment of oncological disorders using epimetabolic shifters, multidimensional intracellular molecules, or environmental influencers” (Berg LLC, priority 2009, dated 2019).

The subject of one data set is Bcl-2. The data set can be described thus: Western blot of building block components, Bcl-2. Type of data set: cell-based. The conditions noted are these: for Bcl-2 (summary): oncogenic cells. The method, then:
(§1) Skmel-28 melanoma cells were cultured in DMEM/F12 supplemented with 5% Fetal Bovine Serum (FBS) and 1× final concentration of Antibiotics. The cells were grown to 85% confluency and treated with building block components for 3, 6, 12 and 24 hours. The cells were then pelleted and a Western blot analysis was performed. The test building block components included L-Phenylylalanine, DL-Phenylylalanine, D-Phenylylalanine, L-Tyrosine, DL-Tyrosine, D-Tyrosine, 4-Hydroxy-phenylpyruvate, phenylacetate, 3-methoxy-4-hydroxymandelate (vanillylmandelate or VMA), vanillic acid, 4-hydroxy-benzoate, pyridoxine, panthenol, mevalonic acid, Acetylglycine, Acetyl-CoA, Farnesyl, and 2,3-Dimethoxy-5-methyl-p-benzoquinone.
(§2) In the Western Blot Analysis, the cells were pelleted in cold PBS, lysed, and the protein levels were quantified using a BCA protein assay. The whole cell lysate was loaded in a 4% loading 12% running Tris-HCl gel. The proteins were then transferred to a nitrocellulose paper then blocked with a 5% milk Tris-buffered solution for 1 hour. The proteins were then exposed to primary antibodies (Bcl-2 and Caspase-3) overnight. The nitrocellulose paper was then exposed to Pico Chemilluminescent for 5 min and the protein expression was recorded. After exposure, actin was quantified using the same method. Using ImageJ the levels of protein expression were quantified. A t-Test was used to analyze for statistical significance.
In general terms: Immunoblotting shows a protein as a band on a membrane.

For the next data set, the system named is Caspase-3. Put plainly: Western blot of building block components, Caspase-3. It counts as cell-based. The conditions noted are these: for Caspase-3 expression: Skmel-28; for Caspase-3 expression (summary): oncogenic cells. The method, then:
as §1, §2

Data set [1] deals with neonatal fibroblast cells. The data set can be described thus: Cell proliferation assay (coulter counter). It counts as cell-based. The note with it: HB 500 nM, 5 μM, 25 μM, alone and with benzoquinone 25, 50, 100 μM; 24 hours.
Description: A cell proliferation assay was also performed on neonatal fibroblast cells. The concentrations of HB tested were 500 nM, 5 μM, and 25 μM. HB was also tested in combination with benzoquinone at a concentrations of 25 μM, 50 μM, and 100 μM. Melanoma cells were seeded at 40 k cells per well and were treated for 24 hours. The cells were trypsinized and quantified using a coulter counter.
The subject of another data set is Melanoma cells. The data set can be described thus: Cell proliferation assay (cell count) of building block combinations. It counts as cell-based. On the procedure: This set of experiments used a cell proliferation assay to assess the effect of combining different building block molecules on cell proliferation.
The first study examined the effect of combining 4-Hydroxy-Benzoate with Benzoquinone. Cells were incubated for 48 hours, after which a cell count was performed for the live cells. Each test group was compared to the control, and each combination groups were compared to Benzoquinone control. The compounds were statistically analyzed for the addition of Benzoquinone.
Additional studies were performed testing additional molar ratios. For the first test 4-Hydroxybenzoic were tested at concentrations of 500 nM, 1 μM, and 50 μM. These concentrations were tested in combination with 2,3-Dimethoxy-5-methyl-p-benzoquinone (Benzo). The concentration of Benzo tested were 25 μM, 50 μM, and 100 μM. Melanoma cells were grown to 80% confluency and seeded in 6 well plates at a concentration of 40K cells per well. The cells were treated with CoQ10, 4-Hydroxybenzoate, Benzo, and a combination of 4-Hydroxybenzoate/Benzo.
A T-test was performed with p<0.05 as statistically significant.

The test system of data set [2] is induced pancreatic cancer. The conditions noted are these: Group H: 5 mg/kg.
In another data set the test system is cancer cells. The note with it: cited from earlier work.
Setting [3] is: Skmel-28, 24 hours, concentration not given.
Where [4] appears, read: Skmel-28, all time points and concentrations tested (500 nM, 1 μM, 25 μM, 50 μM).
[5] abbreviates: all time points and concentrations tested (500 nM, 1 μM, 25 μM, 50 μM).

Take `NC(Cc1ccccc1)C(=O)O` (racemic) [DL-Phenylalanine]: the Bcl-2 expression result with Bcl-2 (setting [3]) is given as “statistically significant decrease in Bcl-2”. Moreover, in the data set on Caspase-3 (3 hours, concentration not given), the Caspase-3 expression result is given as “statistically significant increase in Caspase-3”.
Take `NC(Cc1ccc(O)cc1)C(=O)O` (racemic) [DL-Tyrosine]: the Bcl-2 expression result with Bcl-2 (Skmel-28, 1 μM and 15 μM, 12 hours) is on record as “statistical decrease in Bcl-2 expression”; in the data set on Bcl-2 (Skmel-28, 5 μM, 24 hours), “statistical decrease in Bcl-2 expression”. For the same compound, the Caspase-3 expression result in the data set on Caspase-3 (5 μM and 15 μM, 12 hours) is given as “increase in Caspase-3 expression”.
As to `O=C(O)C(=O)Cc1ccc(O)cc1` [4-Hydroxy-phenylpyruvate], the Bcl-2 expression entry in the data set with Bcl-2 (Skmel-28, 5 μM and 15 μM, 24 hours) is “significant reduction in Bcl-2 expression”. The “Bcl-2 (summary)” value in the data set with Bcl-2 is listed as “significant reduction in Bcl-2”. The Caspase-3 expression result in the data set on Caspase-3 (5 μM and 15 μM, 12 hours) is listed as “significant increase in Caspase-3 expression”. Also, the “Caspase-3 expression (summary)” value in the data set with Caspase-3 is on record as “increase in Caspase-3 expression”.
Consider `O=C(O)c1ccc(O)cc1` [4-Hydroxybenzoate, 4-hydroxy-benzoate], for which the fibroblast cell number entry in data set [1] is “did not show a significant reduction in fibroblast cells”. Further, in the data set on Bcl-2 (Skmel-28, 15 μM, 24 hours), the Bcl-2 expression result is given as “significant reduction in Bcl-2 expression”. The “cell number vs control” value with Melanoma cells (48 hours) is on record as “significant decrease in cell number”. Besides, the cell proliferation result in the data set on Melanoma cells (HB 500 nM, 1 μM, 50 μM) is reported as “significant decrease in cell proliferation”.
Regarding `CC(=O)SCCNC(=O)CCNC(=O)[C@H](O)C(C)(C)COP(=O)(O)OP(=O)(O)OC[C@H]1O[C@@H](n2cnc3c(N)ncnc32)[C@H](O)[C@@H]1OP(=O)(O)O` [Acetyl-CoA], the Bcl-2 expression entry with Bcl-2 (setting [4]) is given as “no significant observed reduction in Bcl-2”. Besides, in the data set with Caspase-3 (setting [5]), the Caspase-3 expression result was “no significant observed reduction in Bcl-2 or increase in Caspase-3 expression”.
Consider `CC(=O)NCC(=O)O` [Acetylglycine], for which the Bcl-2 expression result in the data set with Bcl-2 (Skmel-28, 5 μM and 25 μM, 12 hours) was “significant decrease in Bcl-2 expression”; in the data set with Bcl-2 (Skmel-28, 100 μM, 24 hour), “significant decrease in Bcl-2”.
For `N[C@H](Cc1ccccc1)C(=O)O` [D-Phenylalanine], the Bcl-2 expression result in the data set on Bcl-2 (Skmel-28, 5 μM and 25 μM, 3 hours) was “significant reduction”; in the data set with Bcl-2 (Skmel-28, 5 μM, 25 μM and 100 μM, 6 hours) it was “significant reduction in Bcl-2 expression”. Besides, the Caspase-3 expression entry with Caspase-3 (5 μM and 100 μM, 6 hours) is given as “significant increase in Caspase-3 expression”.
As to `N[C@H](Cc1ccc(O)cc1)C(=O)O` [D-Tyrosine], the Bcl-2 expression result in the data set with Bcl-2 (Skmel-28, 5 μM and 15 μM, 12 and 24 hours) was “reduction in Bcl-2 expression”. The Caspase-3 expression entry in the data set with Caspase-3 (1 μM, 12 and 24 hour) is given as “increase in Caspase-3 expression”; in the data set with Caspase-3 (5 μM, 3, 12 and 24 time periods) it was “significantly increased”; with Caspase-3 (5 μM, 12 hour), “increase in Caspase-3 expression”.
For the compound `COc1cccc2c1C(=O)c1c(O)c3c(c(O)c1C2=O)C[C@@](O)(C(=O)CO)C[C@@H]3O[C@H]1C[C@H](N)[C@H](O)[C@H](C)O1` [Doxorubicin, reference compound], the “survival after 28 days” value in data set [2] is reported as “a significant number of the animals in Group H had died due to the toxicity of Doxorubicin”.
`N[C@@H](Cc1ccccc1)C(=O)O` [L-Phenylalanine]: the Bcl-2 expression result was “statistically significant decrease in Bcl-2” in the data set on Bcl-2 (Skmel-28, 5 μM, 6 hours); “statistically significant decrease in Bcl-2” in the data set on Bcl-2 (Skmel-28, 25 μM, 12 hours); “statistically significant decrease in Bcl-2” in the data set with Bcl-2 (Skmel-28, 100 μM, 3 hours and 12 hours). Besides, in the data set with Bcl-2 (Skmel-28, remaining time points, not statistically significant), the “Bcl-2 expression compared to the control” value was “constant trend for the decrease in Bcl-2”. For the same compound, the “Bcl-2 (summary)” value in the data set with Bcl-2 was “significant reduction in Bcl-2”. Besides, in the data set on Caspase-3 (25 μM, 12 hours), the Caspase-3 expression entry was “statistically significant increase in Caspase-3”. In addition, in the data set with Caspase-3, the “Caspase-3 expression (summary)” value is given as “increase in Caspase-3 expression”.
In the case of `N[C@@H](Cc1ccc(O)cc1)C(=O)O` [L-Tyrosine], the Bcl-2 expression entry is reported as “statistically significant decrease in Bcl-2” with Bcl-2 (Skmel-28, 5 μM, 24 hours); “statistically significant decrease in Bcl-2” with Bcl-2 (Skmel-28, 500 μM and 5 μM, 24 hours). For the same compound, the “Bcl-2 (summary)” value in the data set on Bcl-2 is recorded as “significant reduction in Bcl-2”. Moreover, the Caspase-3 expression entry with Caspase-3 (500 nM, 12 hours) was “statistically significant increase in Caspase-3”. The “Caspase-3 expression (summary)” value with Caspase-3 was “increase in Caspase-3 expression”.
On to `C[C@@](O)(CCO)CC(=O)O` [Mevalonic Acid, mevalonic acid], for which the Bcl-2 expression result in the data set with Bcl-2 (setting [4]) was “no significant reduction in Bcl-2 expression”. Further, the Caspase-3 expression entry in the data set with Caspase-3 (setting [5]) is “no significant reduction in Bcl-2 expression or an increase in Caspase-3 expression”.
On to `CC(C)(CO)[C@@H](O)C(=O)NCCCO` [Panthenol, panthenol], for which, in the data set on Bcl-2 (melanoma cells, 25 μM), the Bcl-2 expression entry is “significant reduction in Bcl-2 expression”.
In the case of `Cc1ncc(CO)c(CO)c1O` [Pyridoxine, pyridoxine], in the data set on Bcl-2 (setting [3]), the Bcl-2 expression entry is reported as “significant reduction in Bcl-2”.
With `COc1cc(C(O)C(=O)O)ccc1O` (stereo not drawn) [VMA, 3-methoxy-4-hydroxymandelate], in the data set on Bcl-2 (Skmel-28, 100 nM to 100 μM), the “Bcl-2 expression, trend” value is “downward trend of Bcl-2 expression” and the “apoptotic effect (Bcl-2, Caspase-3)” value is given as “no statistically significant apoptotic effect”.
In the case of `COc1cc(C(=O)O)ccc1O` [Vanillic Acid, vanillic acid], the Bcl-2 expression result in the data set on Bcl-2 (Skmel-28, 500 nM and 5 μM, 24 hour) was “significantly reduce Bcl-2 expression”; in the data set with Bcl-2 (Skmel-28, 15 μM, 3 hours) it was “reduction in Bcl-2 expression”. Besides, the Caspase-3 expression result in the data set with Caspase-3 (15 μM, 24 hours) is reported as “significant increase in Caspase-3 expression”.
For the compound `C=C1/C(=C\C=C2/CCC[C@]3(C)[C@@H]([C@H](C)CCCC(C)(C)O)CC[C@@H]23)C[C@@H](O)C[C@@H]1O` [Vitamin D3, 1α, 25-dihydroxyvitamin D3], in the data set with cancer cells (Deeb et al. 2007), the “expression of BCL2 and BCL-XL” value was “repressing the expression of the anti-apoptotic, pro-survival proteins BCL2 and BCL-XL”; the “expression of pro-apoptotic proteins (BAX, BAK, BAD)” value is given as “inducing the expression of pro-apoptotic proteins”; the p21WAFI/CIPI gene transcription entry is “induce gene transcription of the cyclin-dependent kinase inhibitor p21WAFI/CIPI”. In the data set on cancer cells (Masuda and Jones, 2006), the “expression of VEGF” value was “inhibit the expression of vascular endothelial growth factor (VEGF)” and the “proliferation of tumor-derived endothelial cells” value is on record as “inhibit the proliferation of some tumor-derived endothelial cells”.
